Measurements reported in article PMC7738871, “Covalent modification of Keap1 at Cys77 and Cys434 by pubescenoside a suppresses oxidative stress-induced NLRP3 inflammasome activation in myocardial ischemia-reperfusion injury” (Theranostics, 2021).

How the values were obtained:
OGD/R-induced H9c2 cells = test: OGD/R-induced injury, MTT viability, H9c2; type: cell-based, rat; conditions: 100 μM, compared with PBA
Method: For OGD/R treatment, H9c2 cells were washed twice with phosphate buffered saline (PBS). The medium was changed to glucose and serum free DMEM, and H9c2 cells were incubated in an incubator with 95% N2 and 5% CO2 at 37 °C. After 6 h, the medium was replaced with DMEM containing 10% FBS and 1% PS. Then H9c2 cells were returned to a normal incubator with 5% CO2 balanced with air at 37 °C for the indicated time.
Cell viability was determined by MTT assays. PBA was prepared to a stock solution dissolved in dimethyl sulfoxide (DMSO). RAW264.7, H9c2 cells, primary mouse cardiomyocytes were treated with different doses of PBA, and DMSO only as control for 48 h for the toxicity. In addition, H9c2 cells or primary mouse cardiomyocytes were treated with the indicated doses of PBA, diazoxide as positive control, DMSO only as control, then cultured with or without OGD/R treatment. At the end of the experiments, MTT was added into each well at the concentration of 0.5 mg/ml, and incubated at 37 °C for 4 h. After removal of the supernatant, 150 μL of DMSO was added to solubilize the formazan products. And the solution was measured at the absorbance of 490 nm by a spectrophotometer (Thermo Fisher Scientific, MA, USA). The results of the MTT assay in all groups were normalized to the control group with DMSO only treatment.

[1] = system: T1, interaction between Keap1 and Nrf2; test: Co-IP of Keap1 and Nrf2 in 293T cells; type: cell-based, human; conditions: WT-Keap1, 30 μM PBA
T1 construct: expressed in transfected cells; host or cells: 293T
Method: Figure 6 PBA suppresses Keap1-mediated ubiquitination of Nrf2 by disrupting the interaction between Cul3 and Keap1. (A and B) PBA suppressed Nrf2 ubiquitination in a Keap1-Cys77 and C434-dependent manner. First, 293T cells were transfected with WT-Keap1 or C77S and C434S-Keap1, Myc-Nrf2, and Ub plasmids for 24 h and treated with 30 μM PBA. The cell lysates were immunoprecipitated using anti-Myc beads, and the ubiquitination level was evaluated using the anti-Ub antibody. (C and D) PBA induced the dissociation of the Nrf2-Keap1 complex. Then, 293T cells were cotransfected with WT-Keap1 and Flag-Nrf2 plasmids for 24 h and treated with 30 μM PBA for 12 h. The cell lysates were immunoprecipitated with the anti-Flag antibody, and the level of Nrf2 was assessed using the anti-Nrf2 antibody. (E and F) PBA disrupted the interaction between Cul3 and Keap1. The 293T cells were transfected with the WT-Keap1 or C77S-C434S-Keap1 plasmids for 24 h and treated with 30 μM PBA for 12 h. The cell lysates were immunoprecipitated with the anti-Flag antibody, and the level of Cul3 was measured using the anti-Cul3 antibody. #p < 0.05, ##p < 0.01, ###p < 0.001, the control vs DMSO; *p < 0.05,**p < 0.01, ***p < 0.001, PBA or tBHQ vs DMSO. […] Primary mouse cardiomyocytes were transfected with mouse WT-Keap1 or C77S and C434S-Keap1 mutant vectors. After 24 h, the cells were treated with the indicated doses of PBA and subjected to OGD conditions as described in the Method section for 3 h and under normal conditions for another 18 h. Cell viability was measured by MTT assays. #p < 0.05, ###p < 0.001, the control vs OGD/R; **p < 0.01, ***p < 0.001, OGD/R+PBA vs OGD/R.
To investigate the effect of PBA on the interaction of Keap1 and Nrf2, we transfected 293T cells with Flag-Keap1 and Myc-Nrf2 plasmids, and treated them with 30 μM PBA for 24 h. The protein expression of Nrf2 was measured by western blotting analysis followed by immunoprecipitation with Flag beads.

[2] = system: Keap1-dependent Nrf2 ubiquitination; test: Keap1-dependent Nrf2 ubiquitination in 293T cells; type: cell-based, human; conditions: WT Keap1, 30 μM PBA 20 h, 5 μM MG132 4 h
Method: Alkylation of the BTB domain of Keap1 by covalent modifiers contributes to the disruption of the Keap1-Cul3 interactions, leading to Nrf2 activation. Next, we investigated the effect of PBA on the modulation of Nrf2 ubiquitination as Nrf2 stability is controlled by ubiquitin-mediated proteasomal degradation. First, 3X Flag-Keap1, Myc-Nrf2 and Ub plasmids were transfected into 293T cells and then, the cells were treated with 30 μM PBA for 20 h and 5 μM MG132 for another 4 h. Cell lysates were pulled down using anti-Myc beads, and immunopurified Nrf2 was examined for the occurrence of Ub by western blotting. […] As shown in Figure 6E-F, PBA could disrupt the interaction of Keap1 and Cul3 in WT-Keap1 cells, while the disruption was blocked in the Cys77S and Cys434-Keap1 mutant cells.
Figure 6 PBA suppresses Keap1-mediated ubiquitination of Nrf2 by disrupting the interaction between Cul3 and Keap1. (A and B) PBA suppressed Nrf2 ubiquitination in a Keap1-Cys77 and C434-dependent manner. First, 293T cells were transfected with WT-Keap1 or C77S and C434S-Keap1, Myc-Nrf2, and Ub plasmids for 24 h and treated with 30 μM PBA. The cell lysates were immunoprecipitated using anti-Myc beads, and the ubiquitination level was evaluated using the anti-Ub antibody. (C and D) PBA induced the dissociation of the Nrf2-Keap1 complex. Then, 293T cells were cotransfected with WT-Keap1 and Flag-Nrf2 plasmids for 24 h and treated with 30 μM PBA for 12 h. The cell lysates were immunoprecipitated with the anti-Flag antibody, and the level of Nrf2 was assessed using the anti-Nrf2 antibody. (E and F) PBA disrupted the interaction between Cul3 and Keap1. […] The cell lysates were immunoprecipitated with the anti-Flag antibody, and the level of Cul3 was measured using the anti-Cul3 antibody. #p < 0.05, ##p < 0.01, ###p < 0.001, the control vs DMSO; *p < 0.05,**p < 0.01, ***p < 0.001, PBA or tBHQ vs DMSO. […] Cell viability was measured by MTT assays. #p < 0.05, ###p < 0.001, the control vs OGD/R; **p < 0.01, ***p < 0.001, OGD/R+PBA vs OGD/R.

SMILES: CC1=NS(=O)(=O)c2cc(Cl)ccc2N1 [diazoxide, reference compound]
- protective effect against OGD/R induced injury (positive control) (OGD/R-induced H9c2 cells): protective effect of PBA seemed equal to that of 100 μM diazoxide

SMILES: CC(C)(C)c1cc(O)ccc1O [tBHQ, reference compound]
- interaction between Keap1 and Nrf2 (Co-IP) [1]: did not affect it
- Keap1-dependent Nrf2 ubiquitination [2]: significantly suppressed
